According to article PMC11866022, “Long-Chain Cyclic Arylguanidines as Multifunctional Serotonin Receptor Ligands with Antiproliferative Activity” (ACS Omega, 2025):
Where “and” joins values, the source holds several entries; their conditions need not be identical. Identical values can stand only once. Each block holds one compound with its values, some of them ahead of it.

Legend:
[1] = calibration standards, assigned values, no reference given; cited from earlier work
1321N1 astrocytoma cells = assay: Antiproliferative activity (MTS), 1321N1; assay type: cell-based, human; details: Homo sapiens, 1321-N1; MTS assay
Procedure: (§1) These cell lines were characterized by different mutation profiles, the main one being the variable status of the p53 protein. In detail, U87MG cells have a wild-type p53 protein, while astrocytoma and the rest of GBM cells harbor mutated p53 protein. Additional assays were performed on MCF7 breast cancer and AsPC-1 pancreatic cancer cells. The wide range of tested lines was aimed at screening the anticancer potential of the tested compounds. The first represents one of the most common and the second one of the most aggressive cancers in the world. Comparing the activity of compounds on GBM cells to other types of cancer may reveal their selectivity and usefulness in targeted therapies. The cytotoxicity of the compounds on normal human astrocytes (NHA) and Feline catus astrocyte (PG-4) was determined. Tests on normal lines serve to verify the potential toxicity of the tested compounds on healthy cells. Due to the targeting of CNS tumors, astrocytes were selected as normal lines.
(§2) The detailed procedure is presented in previous publications.[53] […] Cells were cultured in appropriate media, supplemented with FBS, antibiotics, and other supplements, and incubated at 37 °C with 5% CO2. […] Cell viability was assessed using the MTS assay, and the inhibitory concentration (IC50) was calculated using GraphPad Prism 8.0. Each compound was tested in triplicate across multiple experiments.
Supplementary materials - Biological research […]

5-HT6 = molecular target: T1, 5-HT6 (Homo sapiens, UniProt P50406); assay: Radioligand binding assay, 5-HT6 ([3H]-LSD); details: HEK293 cell line with human 5-HT6R; 2 nM [3H]-LSD
T1 construct: expressed in transfected cells; host or cells: HEK293
Procedure: Ligand affinity for 5-HT6 receptors was subsequently tested with a radioligand binding assay, using the HEK293 cell line with human 5-HT6R, aiming to select compounds with the strongest affinity. Three compounds belonging to 2-naphthalenesulfonamide derivatives of 3,4-dihydroquinazolin-2-amines were obtained (Table 1).
The detailed procedure is presented in previous publications.[53] Assays were performed by incubating for 1 h at 37 °C (room temperature for 5-HT1A) in 200 μL volumes on 96-well plates. The reaction was terminated by rapid filtration using Unifilter plates, and radioactivity on the filters was measured with a PerkinElmer Microbeta plate reader. Radioligands used were:
Eight concentrations (10^–4 to 10^–11 M) were tested in triplicate for each compound. Inhibition constants (Ki) were calculated using the Cheng–Prusoff equation.[54] The results are expressed as the means of at least two independent experiments.

U87MG glioblastoma cells = assay: Antiproliferative activity (MTS), U87MG; assay type: cell-based, human; details: Homo sapiens, U-87 MG; MTS assay
Procedure: as §1, §2
Supplementary materials - Biological research
B) U87MG glioblastoma multiforme line.
and U87MG glioblastoma multiforme line for C) PP 3; D) PP 6; E) PP 8; F) PP 10; G) PP 11; H) PP

[2] = Lipophilicity, chromatographic hydrophobicity index on C18 (Valko protocol); assay type: physicochemical
Procedure: (§3) Lipophilicity and affinity for phospholipids for each investigated molecule were assessed. Additionally, selected compounds with the highest biological activities have been characterized by their affinity plasma proteins. All experiments were performed using protocols developed by Valko.[35] These methods facilitated the calculation of chromatographic hydrophobicity indices (CHI) and plasma protein binding percentages (%PPB) in a biochromatographic experiment, with results compared to the reference. A detailed description of the experiments is provided in the Supporting Information (SI), along with the raw data. […] Although high lipophilicity may limit the medical use of the analyzed compounds since they may tend to accumulate excessively in the human body, it is remarkable that several clinically used drugs also have high lipophilicity. […] (Table 5).
(§4) The detailed procedure is presented in previous publications.[53] High-performance liquid chromatography (HPLC) analyses were conducted using the Prominence-1 LC-2030C 3D system (Shimadzu) with a DAD detector, employing three different chromatographic columns with specific stationary phases and mobile phases. The analysis was performed at 30 °C with a flow rate of 1.5 mL/min for IAM and C18 columns, and 0.9 mL/min for the Chiralpak column. Calibration standards for the columns were sourced from various suppliers and dissolved in dimethyl sulfoxide. Detection occurred in the UV range (190–300 nm) with a 5 μL injection volume. Each compound was analyzed in triplicate. Retention times for the tested compounds and calibration standards are provided in the Supporting Information (Tables S1 and S2).

[3] = Affinity to phospholipids, CHI IAM (Valko protocol); assay type: physicochemical; details: IAM column
Procedure: as §3, §4

[4] = system: AsPC-1 pancreatic cancer cells; assay: Antiproliferative activity (MTS), AsPC-1; assay type: cell-based, human; details: Homo sapiens, ASPC1; MTS assay, 72 h
Procedure: as §1, with “The chosen group of ligands was further examined for their ability to inhibit proliferation across multiple cancer cell lines related to the CNS system (1321N1, U87MG, LN-229, and U-251). These” for “These”
The detailed procedure is presented in previous publications.[53] Briefly, the study utilized various human cancer and normal cell lines, including LN-229 (glioblastoma), MCF7 (breast carcinoma), HepG2 (hepatoma), U-251 (glioblastoma), U87MG (glioblastoma), AsPC-1 (pancreatic adenocarcinoma), and NHA (normal human astrocytes). Cells were cultured in appropriate media, supplemented with FBS, antibiotics, and other supplements, and incubated at 37 °C with 5% CO2. Compounds were dissolved in DMSO, prepared at various concentrations (1–25 μM), and applied to the cells for 72 h. Cell viability was assessed using the MTS assay, and the inhibitory concentration (IC50) was calculated using GraphPad Prism 8.0. Each compound was tested in triplicate across multiple experiments.

[5] = system: LN-229 glioblastoma cells; assay: Antiproliferative activity (MTS), LN-229; assay type: cell-based, human; details: Homo sapiens, LN-229; MTS assay, 72 h
Procedure: as §1, §2

U-251 glioblastoma cells = assay: Antiproliferative activity (MTS), U-251; assay type: cell-based, human; details: Homo sapiens, U-251; MTS assay, 72 h
Procedure: as §1, §2

[6] = molecular target: T2, human serum albumin (HSA) (Homo sapiens, UniProt P02768); assay: HSA binding by biochromatography (HSA column); assay type: in vitro ADME; details: HSA column
T2 construct: purchased
Procedure: as §3, §4

MCF7 breast cancer cells = assay: Antiproliferative activity (MTS), MCF7; assay type: cell-based, human; details: Homo sapiens, MCF7; MTS assay, 72 h
Procedure: as §1, §2

[7] = Metabolic stability in mouse liver microsomes; assay type: in vitro ADME; details: MLMs, 120 min
Source text: Moving on to the next parameter, which is metabolism, we determined metabolic stability, using mouse liver microsomes (MLMs). […]
Main metabolic pathways are marked in red.

T1 sequence (P50406 whole entry): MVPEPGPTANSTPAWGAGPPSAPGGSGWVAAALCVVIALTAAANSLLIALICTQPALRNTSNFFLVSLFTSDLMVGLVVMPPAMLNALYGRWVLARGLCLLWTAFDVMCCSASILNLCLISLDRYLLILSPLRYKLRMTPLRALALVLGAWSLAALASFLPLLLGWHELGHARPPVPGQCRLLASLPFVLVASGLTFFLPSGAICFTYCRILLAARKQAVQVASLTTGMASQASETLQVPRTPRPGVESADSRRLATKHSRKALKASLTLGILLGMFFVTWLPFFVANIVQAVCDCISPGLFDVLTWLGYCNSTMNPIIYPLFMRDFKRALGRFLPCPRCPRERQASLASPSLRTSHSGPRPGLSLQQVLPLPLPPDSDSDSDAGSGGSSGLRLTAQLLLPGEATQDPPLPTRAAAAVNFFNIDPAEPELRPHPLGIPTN
T2 sequence (P02768 25-609): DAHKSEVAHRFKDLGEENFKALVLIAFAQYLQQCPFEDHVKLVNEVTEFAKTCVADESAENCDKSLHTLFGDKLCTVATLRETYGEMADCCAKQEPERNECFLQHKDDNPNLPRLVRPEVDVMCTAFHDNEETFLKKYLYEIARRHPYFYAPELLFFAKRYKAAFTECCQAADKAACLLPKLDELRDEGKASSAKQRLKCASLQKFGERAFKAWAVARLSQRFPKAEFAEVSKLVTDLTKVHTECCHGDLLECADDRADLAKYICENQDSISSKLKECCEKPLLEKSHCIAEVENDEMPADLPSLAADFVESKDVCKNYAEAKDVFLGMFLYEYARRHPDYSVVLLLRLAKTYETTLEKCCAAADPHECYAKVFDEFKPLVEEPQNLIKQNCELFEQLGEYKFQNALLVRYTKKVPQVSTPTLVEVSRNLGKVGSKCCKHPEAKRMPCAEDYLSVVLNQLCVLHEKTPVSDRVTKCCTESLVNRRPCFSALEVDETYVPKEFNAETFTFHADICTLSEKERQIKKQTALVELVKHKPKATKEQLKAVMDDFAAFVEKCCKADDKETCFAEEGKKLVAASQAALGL

Structure (SMILES): CC(=O)Nc1ccccc1 [Acetanilidine]
- CHI IAM of the calibration set [1]: 11.5

- IC50 (1321N1 astrocytoma cells): 1.1 µM
Structure (SMILES): COc1cccc2c1C(=O)c1c(O)c3c(c(O)c1C2=O)C[C@@](O)(C(=O)CO)C[C@@H]3O[C@H]1C[C@H](N)[C@H](O)[C@H](C)O1 [Doxorubicin, reference compound]

Structure (SMILES): CCCCCCC(=O)c1ccccc1 [Heptanophenone]
- CHI IAM of the calibration set [1]: 45.7

Structure (SMILES): CCCCCC(=O)c1ccccc1 [Hexanophenone]
- CHI IAM of the calibration set [1]: 41.8

Structure (SMILES): CCCCCCCC(=O)c1ccccc1 [Octanophenone]
- CHI IAM of the calibration set [1]: 49.4

- Ki (5-HT6): 8.66 ± 2.16 µM
Structure (SMILES): O=S(=O)(c1ccc2ccccc2c1)N1CCN(C2=Nc3ccccc3CN2)CC1 [PP 1, 2-[4-(Naphthalene-2-sulfonyl)piperazin-1-yl]-3,4-dihydroquinazoline]

- Ki (5-HT6): 0.616 ± 0.154 µM
Structure (SMILES): O=S(=O)(NCCCCNC1=NCc2ccccc2N1)c1ccc2ccccc2c1 [PP 2, N-{4-[(1,4-Dihydroquinazolin-2-yl)amino]butyl}naphthalene-2-sulfonamide]

- IC50 (1321N1 astrocytoma cells): 13.3 ± 0.1 µM
- Ki (5-HT6): 0.201 ± 0.05 µM
- IC50 (U87MG glioblastoma cells): 12 ± 0.9 µM
Structure (SMILES): O=S(=O)(NCCCCCCNC1=NCc2ccccc2N1)c1ccc2ccccc2c1 [PP 3, N-{6-[(1,4-Dihydroquinazolin-2-yl)amino]hexyl}naphthalene-2-sulfonamide]

- IC50 (1321N1 astrocytoma cells): > 25 µM
- Ki (5-HT6): 4.33 ± 1.08 µM
- CHI C18 pH 2.6 [2]: 64.9
- CHI C18 pH 7.4 [2]: 79.9
- CHI C18 pH 10.5 [2]: 101.9
- IC50 (U87MG glioblastoma cells): > 25 µM
- CHI IAM [3]: 50.2
- IC50 [4]: > 25 µM
- IC50 [5]: > 25 µM
- IC50 (U-251 glioblastoma cells): > 25 µM
- %HSA [6]: 94.8%
- logKHSA [6]: 1.18 and 1.2
- IC50 (MCF7 breast cancer cells): > 25 µM
Structure (SMILES): O=S(=O)(NCCNC1=Nc2ccccc2CN1)c1cccc2ccccc12 [PP 4, N-{2-[(3,4-Dihydroquinazolin-2-yl)amino]ethyl}naphthalene-1-sulfonamide]

- Ki (5-HT6): 3.49 ± 0.872 µM
Structure (SMILES): O=S(=O)(c1cccc2ccccc12)N1CCN(C2=Nc3ccccc3CN2)CC1 [PP 5, 2-[4-(Naphthalene-1-sulfonyl)piperazin-1-yl]-3,4-dihydroquinazoline]

- Ki (5-HT6): 0.697 ± 0.174 µM
Structure (SMILES): O=S(=O)(NCCCCNC1=Nc2ccccc2CN1)c1cccc2ccccc12 [PP 7, N-{4-[(3,4-Dihydroquinazolin-2-yl)amino]butyl}naphthalene-1-sulfonamide]

- IC50 (1321N1 astrocytoma cells): 18.4 ± 2.9 µM
- Ki (5-HT6): 0.098 ± 0.025 µM
- IC50 (U87MG glioblastoma cells): 24.5 ± 1.4 µM
- IC50 [4]: > 25 µM
- IC50 [5]: > 25 µM
- IC50 (U-251 glioblastoma cells): > 25 µM
- IC50 (MCF7 breast cancer cells): > 25 µM
Structure (SMILES): O=S(=O)(NCCCCCCNC1=Nc2ccccc2CN1)c1cccc2ccccc12 [PP 8, N-{6-[(3,4-Dihydroquinazolin-2-yl)amino]hexyl}naphthalene-1-sulfonamide]

- Ki (5-HT6): 2.42 ± 0.605 µM
Structure (SMILES): CC1NC(NCCNS(=O)(=O)c2cccc3ccccc23)=Nc2ccccc21 (stereo not drawn) [PP 9, N-{2-[(4-Methyl-3,4-dihydroquinazolin-2-yl)amino]ethyl}naphthalene-1-sulfonamide]

- IC50 (1321N1 astrocytoma cells): 5.7 ± 0.1 µM
- Ki (5-HT6): 0.208 ± 0.052 µM
- CHI C18 pH 2.6 [2]: 97.1
- CHI C18 pH 7.4 [2]: 111.2
- CHI C18 pH 10.5 [2]: 121.8
- metabolic stability, % of remaining [7]: 76.87%
- IC50 (U87MG glioblastoma cells): 9.5 ± 0.7 µM
- CHI IAM [3]: 59.4
- %HSA [6]: 99.7%
- logKHSA [6]: 1.9
Structure (SMILES): CC1NC(NCCCCCCNS(=O)(=O)c2cccc3ccccc23)=Nc2c(Cl)cc(Cl)cc21 (stereo not drawn) [PP 12, N-{6-[(6,8-Dichloro-4-methyl-3,4-dihydroquinazolin-2-yl)amino]hexyl}naphthalene-1-sulfonamide]

- IC50 (1321N1 astrocytoma cells): > 25 µM
- Ki (5-HT6): 4.18 ± 1.04 µM
- CHI C18 pH 2.6 [2]: 78.3
- CHI C18 pH 7.4 [2]: 86.3
- CHI C18 pH 10.5 [2]: 87.1
- IC50 (U87MG glioblastoma cells): > 25 µM
- CHI IAM [3]: 37.2
- IC50 [4]: > 25 µM
- IC50 [5]: > 25 µM
- IC50 (U-251 glioblastoma cells): > 25 µM
- %HSA [6]: 95.0%
- logKHSA [6]: 1.2
- IC50 (MCF7 breast cancer cells): > 25 µM
Structure (SMILES): O=S(=O)(NCCNc1ncc2ccccc2n1)c1cccc2ccccc12 [PP 14, N-{2-[(Quinazolin-2-yl)amino]ethyl}naphthalene-1-sulfonamide]

- Ki (5-HT6): 3.1 ± 0.776 µM
- IC50 [4]: > 25 µM
- IC50 [5]: > 25 µM
- IC50 (U-251 glioblastoma cells): > 25 µM
- IC50 (MCF7 breast cancer cells): > 25 µM
Structure (SMILES): O=S(=O)(NCCCCCCNc1ncccn1)c1cccc2ccccc12 [PP 16, N-{6-[(Pyrimidin-2-yl)amino]hexyl}naphthalene-1-sulfonamide]

- 5-HT6 Ki (5-HT6): did not show any affinity
- Ki (5-HT6): 31.9 ± 7.96 µM
Structure (SMILES): c1ccc(CNc2nc3ccccc3[nH]2)cc1 [PP 17, N-Benzyl-1H-1,3-benzimidazol-2-amine]

- 5-HT6 Ki (5-HT6): did not show any affinity
- Ki (5-HT6): 19.8 ± 4.95 µM
Structure (SMILES): c1ccc(CCNc2nc3ccccc3[nH]2)cc1 [PP 18, N-(2-Phenylethyl)-1H-1,3-benzimidazol-2-amine]

- Ki (5-HT6): 1.87 ± 0.46 µM
- IC50 [4]: > 25 µM
- IC50 [5]: > 25 µM
- IC50 (U-251 glioblastoma cells): > 25 µM
- IC50 (MCF7 breast cancer cells): > 25 µM
Structure (SMILES): c1ccc2c(c1)CNC(NCCc1cccc3ccccc13)=N2 [PP 19, N-[2-(Naphthalen-1-yl)ethyl]-3,4-dihydroquinazolin-2-amine]

- 5-HT6 Ki (5-HT6): did not show any affinity
- Ki (5-HT6): 5.05 ± 1.26 µM
- IC50 [4]: > 25 µM
- IC50 [5]: > 25 µM
- IC50 (U-251 glioblastoma cells): > 25 µM
- IC50 (MCF7 breast cancer cells): > 25 µM
Structure (SMILES): c1ccc2c(N3CCN(c4nc5ccccc5[nH]4)CC3)cccc2c1 [PP 20, 2-[4-(Naphthalen-1-yl)piperazin-1-yl]-1H-1,3-benzodiazole]

- Ki (5-HT6): 0.975 ± 0.244 µM
Structure (SMILES): c1ccc2c(c1)CNC(NCCCCCCNc1nsc3ccccc13)=N2 [PP 23, N6-(1,2-Benzothiazol-3-yl)-N1-(3,4-dihydroquinazolin-2-yl)hexane-1,6-diamine]

Structure (SMILES): CC(=O)Nc1ccc(O)cc1 [Paracetamol]
- CHI IAM of the calibration set [1]: 2.9
